# Measurements published in US20220144853A1, “IMIDAZOLINE DERIVATIVES AS CXCR4 MODULATORS” (Université de Paris, priority 2019, published 2022).
# Counter-ions that a name gives are not always drawn.
# Tested on: not given
# Assay: not given
# Settings: not given
row,Compound,melting point
1,"CC1(C)CN2C(CSC3=NCC(C)(C)N3)=CSC2=N1 (as salt: hydrochloride) [Example 2, 3-(((5,5-dimethyl-4,5-dihydro-1H-imidazol-2-yl)thio)methyl)-6,6-dimethyl-5,6-dihydroimidazo[2,1-b]thiazole dihydrochloride]",> 250 °C
2,"CC1(C)CN2C(CSC3=N[C@@H]4CCCC[C@H]4N3)=CSC2=N1 (as salt: hydrochloride) [Example 3, 3-((((3aR,7aR)-3a,4,5,6,7a-hexahydro-1H-benzo[d]imidazol-2-yl)thio)methyl)-6,6-dimethyl-5,6-dihydroimidazo[2,1-b]thiazole dihydrochloride]",65 to 75 °C
3,"CC1(C)CN2C(CSC3=N[C@H]4CCCC[C@@H]4N3)=CSC2=N1 (as salt: hydrochloride) [Example 4, 3-((((3aS,7aS)-3a,4,5,6,7,7a-hexahydro-1H-benzo[d]imidazol-2-yl)thio)methyl)-6,6-dimethyl-5,6-dihydroimidazo[2,1-b]thiazole dihydrochloride]",167 to 175 °C
4,"CC1(C)CN2C(CSC3=N[C@@H]4CCCC[C@@H]4N3)=CSC2=N1 (as salt: hydrochloride) [Example 5, 3-((((3R,7aS)-3a,4,5,6,7,7a-hexahydro-1H-benzo[d]imidazol-2-yl)thio)methyl)-6,6-dimethyl-5,6-dihydroimidazo[2,1-b]thiazole dihydrochloride]",> 250 °C
5,"CC1(C)CN2C(CSC3=NCCN3)=CSC2=N1 (as salt: hydrochloride) [Example 8, 3-(((4,5-dihydro-1H-imidazol-2-yl)thio)methyl)-6,6-dimethyl-5,6-dihydroimidazo[2,1-b]thiazole dihydrochloride]",140 to 144 °C
6,"CN1CCN=C1SCC1=CSC2=NC(C)(C)CN12 (as salt: hydrochloride) [Example 11, 6,6-dimethyl-3-(((1-methyl-4,5-dihydro-1H-imidazol-2-yl)thio)methyl)-5,6-dihydroimidazo[2,1-b]thiazole dihydrochloride]",128 to 132 °C
7,"CC1(C)CN2C(CSC3=NCCCCN3)=CSC2=N1 (as salt: hydrochloride) [Example 12, 6,6-dimethyl-3-(((4,5,6,7-tetrahydro-1H-1,3-diazepin-2-yl)thio)methyl)-5,6-dihydroimidazo[2,1-b]thiazole dihydrochloride]",> 250 °C
8,"CCCCC1CN=C(SCC2=CSC3=NC(C)(C)CN23)N1 (stereo not shown) (as salt: hydrochloride) [Example 13, 3-(((5-butyl-4,5-dihydro-1H-imidazol-2-yl)thio)methyl)-6,6-dimethyl-5,6-dihydroimidazo[2,1-b]thiazole dihydrochloride]",95 to 104 °C
9,"CC1(C)CN=C(SCC2=CSC3=NCCCN23)N1 (as salt: hydrochloride) [Example 14, 3-(((5,5-dimethyl-4,5-dihydro-1H-imidazol-2-yl)thio)methyl)-6,7-dihydro-5H-thiazolo[3,2-a]pyrimidine dihydrochloride]",242 to 245 °C
10,"CC1(C)CN=C(SCC2=CSC3=NCCCCN23)N1 (as salt: hydrochloride) [Example 15, 3-(((5,5-dimethyl-4,5-dihydro-1H-imidazol-2-yl)thio)methyl)-5,6,7,8-tetrahydrothiazolo[3,2-a][1,3]diazepine dihydrochloride]",244 to 247 °C
11,"CC1(C)CN2C(CSC3=NC(C)(C)C(C)(C)N3)=CSC2=N1 (as salt: hydrochloride) [Example 16, 6,6-dimethyl-3-(((4,4,5,5-tetramethyl-4,5-dihydro-1H-imidazol-2-yl)thio)methyl)-5,6-dihydroimidazo[2,1-b]thiazole dihydrochloride]",185 to 205 °C
12,"CC1(C)CN2C(CSC3=NCC(Cc4ccccc4)N3)=CSC2=N1 (stereo not shown) (as salt: hydrochloride) [Example 17, 3-(((5-benzyl-4,5-dihydro-1H-imidazol-2-yl)thio)methyl)-6,6-dimethyl-5,6-dihydroimidazo[2,1-b]thiazole dihydrochloride]",83 to 103 °C
13,"CC1(C)CN=C(SCC2=CSC3=NC(Cc4ccccc4)CN23)N1 (stereo not shown) (as salt: hydrochloride) [Example 18, 6-benzyl-3-(((5,5-dimethyl-4,5-dihydro-1H-imidazol-2-yl)thio)methyl)-5,6-dihydroimidazo[2,1-b]thiazole dihydrochloride]",63 to 74 °C
14,"CCCCC1CN2C(CSC3=NCC(C)(C)N3)=CSC2=N1 (stereo not shown) (as salt: hydrochloride) [Example 19, 6-butyl-3-(((4,4-dimethyl-4,5-dihydro-1H-imidazol-2-yl)thio)methyl)-5,6-dihydroinidazo[2,1-b]thiazole dihydrochloride]",210 to 218 °C
15,"CC1(C)CN=C(SCC2=CSC3=NC(C)(C)C(C)(C)N23)N1 (as salt: hydrochloride) [Example 20, 3-(((5,5-dimethyl-4,5-dihydro-1H-imidazol-2-yl)thio)methyl)-5,5,6,6-tetramethyl-5,6-dihydroimidazo[2,1-b]thiazole dihydrochloride]",140 to 160 °C
16,"CC1(C)CN=C(SCC2=CSC3=NCCN23)N1 (as salt: hydrochloride) [Example 21, 3-(((5,5-dimethyl-4,5-dihydro-1H-imidazol-2-yl)thio)methyl)-5,6-dihydroimidazo[2,1-b]thiazole dihydrochloride]",220 to 230 °C
17,"CC1(C)CN2C(CSC3=N[C@@H]4CCC[C@@H](C4)N3)=CSC2=N1 (as salt: hydrochloride) [Example 22, 3-((((1R,5S)-2,4-diazabicyclo[3.3.1]non-2-en-3-yl)thio)methyl)-6,6-dimethyl-5,6-dihydroimidazo[2,1-b]thiazole dihydrochloride]",> 250 °C
18,"CC1(C)CN2C(CSC3=N[C@H]4COC[C@H]4N3)=CSC2=N1 (as salt: hydrochloride) [Example 25, (3aR,6aS)-2-(((6,6-dimethyl-5,6-dihydroinidazo[2,1-b]thiazol-3-yl)methyl)thio)-3a,4,6,6a-tetrahydro-1H-furo[3,4-d]imidazole dihydrochloride]",> 250 °C
19,"C1=C(CSC2=NCCN2)N2CCCN=C2S1 (as salt: hydrochloride) [Example 26, 3-(((4,5-dihydro-1H-imidazol-2-yl)thio)methyl)-6,7-dihydro-5H-thiazolo[3,2-a]pyrimidine dihydrochloride]",> 250 °C

# Tested on: IFN production by activated PBMCs
# Assay: IFN production by R848-activated PBMCs from healthy donors, twINNE reporter cell line
# Assay type: cell-based, human
# Settings: Homo sapiens, PBMC, means of two results over 2 healthy donors, R848 5 μg/mL, IT1t: mean over all experiments, read-out: IC50 of anti-inflammatory activity (IFN production)
# Experimental: 2) The blood from healthy donors was also obtained from “Etablissement Français du Sang” (convention #19/EFS/029), Paris, France.
# In vitro experiments were performed using human peripheral blood mononuclear cells (PBMCs) isolated by density centrifugation from peripheral blood leukocyte separation medium, lymphoprep (Stemcell Technologies).
# PBMCs were cultured in RPMI 1640 (Sigma-Aldrich, MO, USA) containing 10% heat-inactivated fetal bovine serum (Sigma-Aldrich, MO, USA) at 37° C./5% CO2.
# 2) The PBMCs used herein were prepared as described in part A “immune cells preparation”, section 2) above. PBMCs were seeded at 4.10^6/mL. […] Cells were then stimulated with the TLR7/8 agonist resiquimod—R848 (Sigma-Aldrich, MO, USA) at 5 μg/mL.
# 2) To quantify the secretion of functional IFN, a biological assay based on a stable cell line where luciferase reporter gene is controlled by five Interferon-Stimulated Response Elements (twINNE cell line) was used. It is important to note that the twINNE cell line is the same as the above mentioned STING-37 cell line but with constitutively expressed nanoluciferase. First, supernatants of R848-stimulated PBMCs (see part B, section 2) above) were harvested after 24 h of stimulation and frozen at −20° C. for storage. Then, supernatants were dispensed in culture wells of a 96-well plate containing 35.103 twINNE cells per well in Dulbecco's Modified Eagle's Medium supplemented with 10% Foetal Bovine Serum, 100 U/mL Penicillin and 100 μg/mL Streptomycin (1% Pen-Strep) and 1 mM glutamine (Sigma-Aldrich, MO, USA) at 37° C./5% […]. After 24 h of culture, luciferase activity was determined by adding 60 μL of Bright-Go reagents (Promega, Wisconsin, USA) to culture wells and measuring bioluminescence with EnSpire Multimode Plate Reader (PerkinElmer, Massachusetts, USA). When stated, for IC50 calculation, dose-response curves fitted using the nonlin fit (variable slope) analysis in GraphPad Prism software (GraphPad Software, California, USA).
row,Compound,IC50
1,"CC1(C)CN2C(=N1)SC(I)=C2CSC1=NCC(C)(C)N1 [Example 66, 3-(((5,5-dimethyl-4,5-dihydro-1H-imidazol-2-yl)thio)methyl)-2-iodo-6,6-dimethyl-5,6-dihydroimidazo[2,1-b]thiazole dihydrochloride]",≤ 10 µM
2,"c1ccc(CC2CN=C(SCCCc3ccc4c(n3)NCCC4)N2)cc1 (stereo not shown) [Example 68, 7-(3-((5-benzyl-4,5-dihydro-1H-imidazol-2-yl)thio)propyl)-1,2,3,4-tetrahydro-1,8-naphthyridine dihydrochloride]",10 to 31 µM
3,"CC1(C)CN2C(=N1)SCC2SC1=NCC(C)(C)N1 (stereo not shown) [Example 70, 3-((5,5-dimethyl-4,5-dihydro-1H-imidazol-2-yl)thio)-6,6-dimethyl-2,3,5,6-tetrahydroimidazo[2,1-b]thiazole dihydrochloride]",≥ 31 µM
